Entries after “also recorded” stand apart in the source; their conditions may differ.
Columns and labels:
[1] = Gastric retention time of swellable acamprosate tablet in dog model (fed mode induction with alpha-lipoic acid); type: in vivo; settings: retention of 800 mg swellable tablet; After 125 mg alpha-lipoic acid given 15 minutes before; four beagle dogs
[2] = test system: cultured rat hippocampus neurons; assay: Organotypic hippocampal slice model of glutamate neurotoxicity after acamprosate pre-treatment; type: cell-based; settings: 200 μM calcium acamprosate for 8 hr or 5 days; removed for up to eight hours; challenge NMDA 50 uM or mGluR agonist
Procedure: The study is designed to test whether pre-treatment with acamprosate can have long-term neuronal protective effects against glutamate neurotoxicity. The study uses an in vitro organotypic hippocampal slice model. The study assesses whether less than 24 hours per day of exposure to a sufficient level of acamprosate can offer 24-hour therapeutic actions in neuropsychiatric disorders. […] This supports, among other things, the therapeutic use of acamprosate in neuropsychiatric disorders because the latter are related to the effect of acamprosate to decrease glutamate effects at NMDA and metabotropic glutamate receptors.
Hippocampal slices derived from 8-day-old Sprague Dawley rats are plated and subsequently exposed to a relatively acute (8 hour) or more chronic (5 day) acamprosate treatment. […] The slices are then placed in normal medium with propidium iodide for 24 hr and assessed for neurotoxicity/neuroprotection as described below. […]
For the final medium change, the plates are moved into normal media containing propidium iodide (PI) added to each well for 24 hours. PI only penetrates cell membranes of damaged or potentially dying cells, binding to DNA to produce a bright, intensified red fluorescence at 630 nm. […] Fluorescence is recorded in arbitrary units, then converted to percent of control, facilitating comparison across multiple cultures and controlling for variation between litters.

[3] = cited from earlier work
[4] = test system: abnormal chewing movements produced in rats by haloperidol; assay: Rat model of tardive dyskinesia (haloperidol-induced abnormal chewing movements); type: in vivo; settings: steadily-maintained blood level; rats exposed several weeks to haloperidol
Procedure: Acamprosate is tested using a rat model of tardive dyskinesia looking at abnormal chewing movements produced in rats by exposing them for several weeks to haloperidol, a potent first-generation neuroleptic. […]

tardive dyskinesia = assay: Clinical cases: acamprosate treatment of tardive dyskinesia; type: in vivo, human
Procedure: Case 1: A person had long-standing tardive dyskinesia induced by treatment of schizoaffective disorder with a variety of neuroleptics and mood stabilizers. Their TD was characterized by side to side movements of the jaw, grimacing movements, rocking of the trunk, and continual involuntary kicking, leg-crossing, and twisting movements of their legs and feet. At the time they presented for treatment of their TD they were treated for their mental illness with lamotrigine and quetiapine, a second-generation neuroleptic.
After additional weeks free of TD symptoms they discontinued the acamprosate. Their TD symptoms returned, as did feelings of anxiety and agitation that had not been present while they were on the combination of acamprosate and perphenazine.
To test the hypothesis that the efficacy of acamprosate was related to adequate time above a threshold blood level the patient was asked to try taking 1332 mg of acamprosate once a day.
CASE 2: A person had been treated with acamprosate for several years for TD due to exposure to several neuroleptics for schizoaffective disorder. They were currently treated with lamotrigine and quetiapine for their mental illness, and was taking acamprosate 1032 mg+999 mg+1032 mg on a three times daily basis. […] To test the therapeutic threshold hypothesis the patient was asked to try 1032 mg of acamprosate once a day in the morning.

[5] = cited from earlier work; remark: listed apart in the source
[6] = test system: Per2(Brdm1) deletion or ENT1(-/-) mice; assay: Transgenic mouse models with movement disorders and hyperglutamatergic states; type: in vivo; settings: steadily-maintained blood level

Compound	Average gastric retention time [1] [h]	Maximum gastric retention time [1] [h]	Minimum gastric retention time [1] [h]	effect on post-synaptic effects of glutamate agonists after removal of acamprosate from the culture medium [2]	decrease of bioavailability by food [3]	abnormal chewing movements [4]	relief of TD symptoms (tardive dyskinesia; Case 1, 666 mg three times a day)	relief of TD symptoms (tardive dyskinesia; Case 1, 999 mg three times a day)	anxiety and agitation (tardive dyskinesia; Case 1, 999 mg three times a day, with perphenazine)	relief of TD symptoms (tardive dyskinesia; Case 1, 1332 mg once a day)	side effects (tardive dyskinesia; Case 1, 1332 mg once a day)	relief of involuntary movements of TD (tardive dyskinesia; Case 2, 999 mg three times a day)	relief of involuntary movements of TD (tardive dyskinesia; Case 2, 1032 mg in the morning plus second dose of 1032 mg 8 to 10 hours later)	relief of involuntary movements of TD (tardive dyskinesia; Case 2, 1032 mg once a day in the morning)	relief of involuntary movements of TD (tardive dyskinesia; Case 2, 1032 mg+999 mg+1032 mg three times daily)	anxiety and agitation (tardive dyskinesia; Case 2, when involuntary movements were relieved, with lamotrigine and quetiapine)	solubility [5]	solubility in gastric juice ([5]; gastric juice)	abnormal movements [6]
O=C(O)CCCCC1CCSS1 (stereo not drawn) [alpha-lipoic acid]	2.8	5	1.5																
CC(=O)NCCCS(=O)(=O)O [acamprosate, calcium N-acetylhomotaurinate]				persistent effect	approximately 30%	reduce or eliminate the abnormal movements	partial relief of symptoms; also recorded: did not give their complete relief	complete relief of their TD	relief of anxiety and agitation	free of involuntary movements of TD	significant GI side effects of diarrhea and abdominal cramps	did not give full relief from their involuntary movements	complete relief of symptoms	free of movements in the morning and early afternoon but movements returned in the evening	completely relieved their involuntary movements of TD	less anxiety and agitation	high solubility	immediately and completely soluble in gastric juice	reduce or eliminate the abnormal movements

Source: patent publication US9421179B2, “Acamprosate formulations, methods of using the same, and combinations comprising the same” (Synchroneuron Inc., priority 2011, dated 2016)
